From ChEMBL document CHEMBL2417489, “A structure-activity relationship study of 1,2,4-triazolo[1,5-a][1,3,5]triazin-5,7-dione and its 5-thioxo analogues on anti-thymidine phosphorylase and associated anti-angiogenic activities” (Eur J Med Chem, 2013)
Active and inactive are the calls of the source. No cut-off for these calls is given here.

What was measured:
Thymidine phosphorylase = molecular target: T1, Thymidine phosphorylase (Homo sapiens, UniProt P19971); assay: Inhibition of human recombinant thymidine phosphorylase expressed in Escherichia coli using thymidine as substrate after 4 to 20 mins by spectrophotometry
T1 sequence (P19971 whole entry): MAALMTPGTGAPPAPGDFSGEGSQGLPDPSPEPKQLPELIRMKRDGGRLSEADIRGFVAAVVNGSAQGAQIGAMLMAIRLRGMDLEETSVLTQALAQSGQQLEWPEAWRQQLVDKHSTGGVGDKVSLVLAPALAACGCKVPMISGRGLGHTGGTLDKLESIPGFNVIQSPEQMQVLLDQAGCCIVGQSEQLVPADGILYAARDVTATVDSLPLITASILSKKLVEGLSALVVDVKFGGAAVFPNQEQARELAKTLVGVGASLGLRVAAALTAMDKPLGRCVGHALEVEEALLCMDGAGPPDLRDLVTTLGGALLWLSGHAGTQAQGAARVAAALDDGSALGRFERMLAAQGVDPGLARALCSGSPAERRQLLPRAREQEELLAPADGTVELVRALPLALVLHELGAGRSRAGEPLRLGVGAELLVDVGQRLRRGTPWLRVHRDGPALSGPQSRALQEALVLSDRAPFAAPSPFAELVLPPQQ

MDA-MB-231 [1] = details: Homo sapiens, 25 to 200 uM
Description: Antiangiogenic activity in human MDA-MB-231 cells assessed as inhibition of VEGF protein expression at 25 to 200 uM after 24 hrs by ELISA relative to vehicle-treated control

MDA-MB-231 [2] = details: Homo sapiens, 50 to 100 uM
Description: Antiangiogenic activity in human MDA-MB-231 cells assessed as inhibition of PMA-induced MMP-9 expression at 50 to 100 uM after 24 hrs by densitometric analysis relative to vehicle-treated control

MDA-MB-231 [3] = details: Homo sapiens, 200 uM
Description: Antiangiogenic activity in human MDA-MB-231 cells assessed as inhibition of PMA-induced MMP-9 expression at 200 uM after 24 hrs by gelatine zymography relative to vehicle-treated control

MDA-MB-231 [4] = details: Homo sapiens, 100 to 200 uM
Description: Antiangiogenic activity in human MDA-MB-231 cells assessed as inhibition of PMA-induced MMP-9 expression at 100 to 200 uM after 24 hrs by densitometric analysis relative to vehicle-treated control

| IC50 (Thymidine phosphorylase) | Structure (SMILES) | inhibition (MDA-MB-231 [1]) | inhibition (MDA-MB-231 [2]) | inhibition (MDA-MB-231 [3]) | inhibition (MDA-MB-231 [4]) |
| --- | --- | --- | --- | --- | --- |
| > 100 µM | O=c1[nH]c(=O)n2nc(Cc3ccccc3)nc2[nH]1 | – | – | – | – |
| – | O=c1[nH]c(=S)[nH]c2nc(Cc3ccc(Cl)c(Cl)c3)nn12 | Active | inactive | Active | – |
| – | O=c1[nH]c(=S)[nH]c2nc(-c3ccc(Cl)c(Cl)c3)nn12 | Active | – | Active | Active |
| > 100 µM | O=c1[nH]c(=O)n2nc(-c3ccccc3)nc2[nH]1 | – | – | – | – |
| – | Cc1cc(-c2nc3[nH]c(=S)[nH]c(=O)n3n2)ccc1Br | Active | – | Active | Active |
